{"source": "patent US6500856B2", "about": "“Cyclic AMP-specific phosphodiesterase inhibitors” (Icos Corporation, priority 1999, dated 2002)", "key": {"[1]": {"tested_on": "human peripheral blood lymphocytes (PBL)", "assay": "Lipopolysaccharide-stimulated TNFα release from human peripheral blood lymphocytes", "format": "cell-based", "conditions": "LPS-stimulated TNFα release from human PBL", "procedure": "The compounds of structural formula (II) also were tested for an ability to reduce TNFα secretion in human peripheral blood lymphocytes. The ability to reduce TNFα secretion is related to the EC50 values (i.e., the effective concentration of the compound capable of inhibiting 50% of the total TNFα).\nTo assess the ability of a compound to reduce TNFα secretion in human peripheral blood lymphocytes (PBL), the following tests were performed.\nHeparinized blood (approximately 30 mL) drawn from human volunteers was mixed 1:1 with Dulbecco's modified phosphate-buffered saline. This mixture was mixed 1:1 with HISTOPAQUE® and centrifuged at 1,500 rpm at room temperature without braking in the swinging bucket of a Beckman model TJ6 centrifuge. Erythrocytes were centrifuged to the bottom of the tubes, and serum remained at the surface of the tubes. A layer containing lymphocytes sedimented between the serum and HISTOPAQUE® layers, and was removed by aspiration to a fresh tube. The cells were quantified and adjusted to 3×10^6 cells/mL and a 100 μL aliquot is placed into the wells of a 96 well plate. Test compounds and RPMI media (Gibco/BRL Life Sciences) are added to each of the wells 15 minutes prior to addition of bacterial LPS ([…]). The mixture was allowed to incubate for 20 hours at 37° C. in a humidified chamber. The cells then were separated by centrifuging at 800 rpm for 5 minutes at room temperature. An aliquot of 180 μL of supernatant was transferred to a new plate for determination of TNFα concentration. TNFα protein in the cell supernatant fluids was measured using a commercially available enzyme-linked immunosorbent assay (ELISA) (CYTOSCREEN® Immunoassay Kit from Biosource International).\nThe cell-based assay provided the following results for various pyrrolidine compounds of the present invention. The EC50 values (i.e., effective concentration of the compound capable of inhibiting 50% of the total TNFα) illustrate the ability of the present compounds to inhibit LPS-stimulated TNFα release from human PBL."}, "[2]": {"assay": "Combined mouse endotoxin-stimulated TNFα release and locomotor activity assay (spontaneous mobility)", "format": "in vivo", "conditions": "female, Balb/c, in vivo, ip, locomotor activity, read-out: ED50 (effective dose that decreases spontaneous mobility 50% of control)", "procedure": "(§1) The purpose of this study was to determine the efficacy of PDE4 inhibitors in vivo in an LPS mouse model together with a determination with respect to central nervous system (CNS) side-effects manifested by a decrease in spontaneous mobility.\n(§2) The test animals were female Balb/c mice, having an average weight of about 20 g. The PDE4 inhibitors, formulated in 30% Cremophor® EL, were administered via intraperitoneal (i.p.) injections at doses of 0.1, 1.0, 10.0, and 100 mg/kg. Individual dose volumes (about 150 μL) were adjusted based on the body weights measured. One hour later, 5 mg/kg LPS in a final volume of 200 μL was injected via the tail vein to each animal. Ninety minutes following the LPS treatment, the animals were bled and serum samples were collected before being stored at −70° C. until assayed.\n(§3) Movement of the X-Y plane, or rearina up on the hind legs, was quantified by counting the number of “light-beam” crosses per unit of time. A decrease in the number of activity events is directly proportional to the mobility or immobilization of the animal. The quantitative scoring correlated well with the subjective measurements described above.\n(§4) The following table summarizes the locomotor activity assay (mobility, % activity) results obtained by the above-described method:\n(§5) effective dose, in mg/kg, that decreases spontaneous mobility 50% of control."}, "recombinant human PDE4 [3]": {"tested_on": "T1, recombinant human PDE4", "T1 construct": "PDE4 IC50; other: human recombinant PDE4", "assay": "PDE4 inhibition, recombinant human PDE4 (charcoal separation PDE assay)", "format": "biochemical", "procedure": "The compounds of structural formula (II) were tested for an ability to inhibit PDE4. The ability of a compound to inhibit PDE4 activity is related to the IC50 value for the compound, i.e., the concentration of inhibitor required for 50% inhibition of enzyme activity. The IC50 value for compounds of structural formula (II) were determined using recombinant human PDE4.\nPhosphodiesterase activity of the preparations was determined as follows. PDE assays utilizing a charcoal separation technique were performed essentially as described in Loughney et al. (1996). In this assay, PDE activity converts [32P]cAMP or [32P]cGMP to the corresponding [32P]5′-AMP or [32P]5′-GMP in proportion to the amount of PDE activity present. The [32P]5′-AMP or [32P]5′-GMP then was quantitatively converted to free [32P]phosphate and unlabeled adenosine or guanosine by the action of snake venom 5′-nucleotidase. […] The assay was performed at 30° C. in a 100 μL reaction mixture containing (final concentrations) 40 mM Tris HCl (pH 8.0), 1 μM ZnSO4, 5 mM MgCl2, and 0.1 mg/mL bovine serum albumin (BSA). Alternatively, in assays assessing PDEl-specific activity, incubation mixtures further incorporated the use of 0.1 mM CaCl2 and 10 μg/mL calmodulin. PDE enzyme was present in quantities that yield <30% total hydrolysis of substrate (linear assay conditions). The assay was initiated by addition of substrate ([…] [32P]cAMP or cGMP), and the mixture was incubated for 12 minutes. Seventy-five (75) μg of Crotalus atrox venom then was added, and the incubation was continued for 3 minutes (15 minutes total). The reaction was stopped by addition of 200 μL of activated charcoal (25 mg/mL suspension in 0.1 M NaH2PO4, pH 4). After centrifugation (750×g for 3 minutes) to sediment the charcoal, a sample of the supernatant was taken for radioactivity determination in a scintillation counter and the PDE activity was calculated.\nThe table below illustrates the ability of compounds of formula (II) to inhibit PDE4 activity and TNFα release in vitro. In the following table, the IC50 values were determined against human recombinant PDE4."}, "female Balb/c mice": {"tested_on": "female Balb/c mice", "assay": "Combined mouse endotoxin-stimulated TNFα release and locomotor activity assay (spontaneous mobility)", "format": "in vivo", "conditions": "i.p., 50 mg/kg dose, locomotor activity", "procedure": "as §1, §2, §3, §4, §5"}, "[4]": {"conditions": "in vivo; cited from earlier work"}, "recombinant human PDE4 [5]": {"tested_on": "recombinant human PDE4", "conditions": "prior art value; read-out: IC50 with respect to inhibiting recombinant human PDE4 (reported); cited from earlier work"}}, "note": "Read-outs that look alike come from different tables or passages of the source.", "data": [{"smiles": "COC(=O)N1CC(c2ccc(OC)c(OC3CCCC3)c2)[C@@](C)(/C(C)=N\\O)C1", "note": "(some centres unmarked) [Example 2b]", "values": [{"measurement": "EC50", "setting": "[1]; Homo sapiens, Lymphocyte", "result": 23, "unit": "nM"}, {"measurement": "ED50", "setting": "[2]", "result": 7, "unit": "mg/kg"}, {"measurement": "IC50", "setting": "recombinant human PDE4 [3]", "result": 2.2, "unit": "nM"}]}, {"smiles": "CN/N=C(\\C)C1(C)CN(C(=O)OC)CC1c1ccc(OC)c(OC2CCCC2)c1", "note": "(single isomer, unassigned) [Example 1b]", "values": [{"measurement": "EC50", "setting": "[1]", "result": 2.2, "unit": "nM"}, {"measurement": "Mobility (% activity at 50 mg/kg dose)", "setting": "female Balb/c mice", "result": 6, "unit": "% activity"}, {"measurement": "IC50", "setting": "recombinant human PDE4 [3]", "result": 2.2, "unit": "nM"}]}, {"smiles": "COC(=O)N1CC(c2ccc(OC)c(OC3Cc4ccccc4C3)c2)[C@](C)(/C(C)=N\\O)C1", "note": "(mixture of isomers) [Example 3]", "values": [{"measurement": "EC50", "setting": "[1]; Homo sapiens, Lymphocyte", "result": 551, "unit": "nM"}, {"measurement": "IC50", "setting": "recombinant human PDE4 [3]", "result": 189, "unit": "nM"}]}, {"smiles": "COc1ccc([C@@H]2CNC(=O)C2)cc1OC1CCCC1", "note": "[R-rolipram]", "values": [{"measurement": "Emetic potency relative to the (+)-enantiomer", "setting": "[4]", "result": "about ten-fold more emetic"}]}, {"smiles": "COc1ccc(C2CNC(=O)C2)cc1OC1CCCC1", "note": "(centres unmarked) [Rolipram]", "values": [{"measurement": "IC50", "setting": "recombinant human PDE4 [5]", "result": "~200", "unit": "nM"}]}, {"smiles": "COC(=O)N1CC(c2ccc(OC)c(OC3CCCC3)c2)C(C)(C(C)=O)C1", "note": "(centres unmarked) [formula (I)]", "values": [{"measurement": "IC50", "setting": "recombinant human PDE4 [5]", "result": "~2", "unit": "nM"}]}, {"smiles": "COC(=O)N1CC(c2ccc(OC)c(OC3CCCC3)c2)[C@](C)(/C(C)=N\\O)C1", "note": "(some centres unmarked) [Example 2a]", "values": [{"measurement": "EC50", "setting": "[1]; Homo sapiens, Lymphocyte", "result": 281, "unit": "nM"}, {"measurement": "ED50", "setting": "[2]", "result": "> 50", "unit": "mg/kg"}, {"measurement": "IC50", "setting": "recombinant human PDE4 [3]", "result": 49, "unit": "nM"}]}, {"smiles": "CN/N=C(\\C)C1(C)CN(C(=O)OC)CC1c1ccc(OC)c(OC2CCCC2)c1", "note": "(single isomer, unassigned) [Example 1a]", "values": [{"measurement": "EC50", "setting": "[1]", "result": 76, "unit": "nM"}, {"measurement": "Mobility (% activity at 50 mg/kg dose)", "setting": "female Balb/c mice", "result": 64, "unit": "% activity"}, {"measurement": "IC50", "setting": "recombinant human PDE4 [3]", "result": 116, "unit": "nM"}]}]}
